According to patent US10077284B2, “UBA5 inhibitors” (THE GOVERNING COUNCIL OF THE UNIVERSITY OF TORONTO, priority 2014, dated 2018):
Where “and” joins values, the source holds several entries; their conditions need not be identical. Equal values may be shown once.

Molecular target: T1, Ub activating enzyme (UAE) (Homo sapiens, UniProt P22314)
T1 construct: purchased Boston Biochem
T1 sequence (P22314 1-1058): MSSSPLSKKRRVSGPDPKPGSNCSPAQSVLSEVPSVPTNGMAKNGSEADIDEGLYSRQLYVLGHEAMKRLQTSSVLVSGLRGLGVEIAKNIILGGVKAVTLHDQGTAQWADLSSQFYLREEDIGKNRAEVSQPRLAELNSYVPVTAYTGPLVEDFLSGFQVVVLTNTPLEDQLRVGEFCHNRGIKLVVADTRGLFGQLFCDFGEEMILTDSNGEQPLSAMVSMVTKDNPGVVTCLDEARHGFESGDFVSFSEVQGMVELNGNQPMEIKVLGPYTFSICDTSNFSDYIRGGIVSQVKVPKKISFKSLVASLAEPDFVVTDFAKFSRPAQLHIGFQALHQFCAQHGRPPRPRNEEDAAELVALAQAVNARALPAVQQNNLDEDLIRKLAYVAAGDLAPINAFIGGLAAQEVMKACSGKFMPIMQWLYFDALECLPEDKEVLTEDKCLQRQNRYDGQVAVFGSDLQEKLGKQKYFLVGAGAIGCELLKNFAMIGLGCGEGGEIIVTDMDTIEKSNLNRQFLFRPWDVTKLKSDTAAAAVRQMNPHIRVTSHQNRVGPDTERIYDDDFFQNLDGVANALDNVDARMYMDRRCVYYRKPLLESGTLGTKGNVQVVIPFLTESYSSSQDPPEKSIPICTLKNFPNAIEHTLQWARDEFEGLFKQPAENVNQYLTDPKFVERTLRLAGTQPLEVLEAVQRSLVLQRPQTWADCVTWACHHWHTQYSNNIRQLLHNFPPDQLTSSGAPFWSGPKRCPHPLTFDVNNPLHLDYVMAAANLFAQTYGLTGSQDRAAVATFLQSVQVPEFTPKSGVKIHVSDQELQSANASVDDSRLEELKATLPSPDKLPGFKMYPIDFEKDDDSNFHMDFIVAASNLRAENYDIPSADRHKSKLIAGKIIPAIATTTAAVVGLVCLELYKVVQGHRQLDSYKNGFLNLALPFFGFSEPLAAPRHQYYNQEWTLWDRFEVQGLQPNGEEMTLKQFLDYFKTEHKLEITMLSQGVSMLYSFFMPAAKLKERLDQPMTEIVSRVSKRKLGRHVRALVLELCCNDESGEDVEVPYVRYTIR
Assay: UAE transthiolation assay (Ub transfer to His6-UbcH6)
Assay type: biochemical
Experimental: Initial rates were recorded over 30 second time intervals from 0 to 2.5 min (normal kinetics) or 0 to 5 min (inhibition kinetics). Reactions were initiated by the addition of ATP and stopped using 4× Laemmli sample buffer (BioRad). The generated protein conjugates were separated on a 10% non-degenerating SDS-polyacrylamide gel (4-15% gels were used for the UAE transthiolaton assay), followed by Western blot analysis, with the exception of GST-UBA5 where protein bands were detected using Coomassie™ Brilliant Blue R-250 staining or Stain-Free gel imaging for the enzymatic assays (Bio-Rad). Transfers for the UAE and NAE immunoblots were performed using nitrocellulose membranes and blocking and blotting was performed as described above with cellular protein extracts. The His6-tagged Ub-UBCH6 complex was detected using an anti-His mouse monoclonal primary antibody (1:500, abcam). A rabbit anti-NEDD8 polyclonal primary antibody (1:500, BostonBiochem) was used for the detection of the E2-NEDD8 complexes. […] Inhibitory data was fit to a dose-response curve (Y=Bottom+(Top−Bottom)/(1+10^(X-Log IC50))) using GraphPad Prism 6.

With Nc1ncnc2c1ncn2[C@@H]1O[C@H](C(=O)NCCCCCC(=O)N2CCNCCNCCNCC2)[C@@H](O)[C@H]1O.O=S(=O)([O-])C(F)(F)F.O=S(=O)([O-])C(F)(F)F.[Zn+2] [Compound 1.5.Zn, (2S,3S,4R,5R)—N-(6-(1,4,7,10-tetraazacyclododecan-1-yl)-6-oxohexyl)-5-(6-amino-9H-purin-9-yl)-3,4-dihydroxytetrahydrofuran-2-carboxamide zinc trifluoromethanesulfonate] the IC50 (n=3-6) was 76.7 µM and 78.5 µM and the “selectivity for UBA5 over UAE” value (ratio of IC50) was > 20 fold and ~20 fold.
